# Experimental data reported in PMC10205801 (2023).
# Columns and labels:
# [1] = test system: Beetroot (RNA, aptamer) GCGCCGGUUAGGCAGAGGUGGGUGGUGUGGAGGAGUAUCUGUCCGGCGC; assay: co-crystal structure, 2.1 Å; fluorescence activation; settings: K+
# [2] = test system: F30_Beetroot (RNA, aptamer) GGAGCCAUGUGUAUGUGGUCCGCGCCGGUUAGGCAGAGGUGGGUGGUGUGGAGGAGUAUCUGUCCGGCGCGGACCACAUACUCUGAUGAUCCUUCGGGAUCAUUCAUGGCUCC; assay: fluorescence emission spectrum; settings: 150 mM K+, 5 mM Mg2+; 20 mM MOPS-KOH pH 7
# [3] = test system: Beetroot (RNA, aptamer) GCGCCGGUUAGGCAGAGGUGGGUGGUGUGGAGGAGUAUCUGUCCGGCGC; assay: fluorescence titration; settings: 150 mM K+, 5 mM Mg2+; 20 mM MOPS-KOH pH 7.0; RNA titrated into dye
# [4] = test system: A31U (RNA, aptamer) GCGCCGGUUAGGCAGAGGUGGGUGGUGUGGUGGAGUAUCUGUCCGGCGC; assay: fluorescence activation; settings: 150 mM K+, 5 mM Mg2+; 20 mM MOPS-KOH pH 7.0; fluorescence reduced at least 50% relative to wild-type
# [5] = test system: J1/2 deletion (RNA, aptamer) GCGCCGGGCAGAGGUGGGUGGUGUGGAGGAGUAUCUGUCCGGCGC; assay: fluorescence activation; settings: 150 mM K+, 5 mM Mg2+; 20 mM MOPS-KOH pH 7.0; fluorescence comparable to wild-type
# [6] = test system: Beetroot (RNA, aptamer) GCGCCGGUUAGGCAGAGGUGGGUGGUGUGGAGGAGUAUCUGUCCGGCGC; assay: ITC; settings: 150 mM K+, 5 mM Mg2+; 20 mM MOPS-KOH pH 7.0, 25 °C (methods; text gives 21 °C); two equivalent sites per dimer; per site
# [7] = test system: A16U + U38G (Wobble Beetroot) (RNA, aptamer) GCGCCGGUUAGGCAGUGGUGGGUGGUGUGGAGGAGUAGCUGUCCGGCGC; assay: fluorescence titration; settings: 150 mM K+, 5 mM Mg2+; 20 mM MOPS-KOH pH 7.0; RNA titrated into dye
# [8] = test system: A31C (RNA, aptamer) GCGCCGGUUAGGCAGAGGUGGGUGGUGUGGCGGAGUAUCUGUCCGGCGC; assay: fluorescence activation; settings: 150 mM K+, 5 mM Mg2+; 20 mM MOPS-KOH pH 7.0; fluorescence reduced at least 50% relative to wild-type
# [9] = test system: A16U + U38A (RNA, aptamer) GCGCCGGUUAGGCAGUGGUGGGUGGUGUGGAGGAGUAACUGUCCGGCGC; assay: fluorescence activation; settings: 150 mM K+, 5 mM Mg2+; 20 mM MOPS-KOH pH 7.0; considerably less fluorescent than wild-type
# [10] = test system: F30-wild-type Beetroot / Wobble Beetroot heterodimer (RNA, aptamer) GGAGCCAUGUGUAUGUGGUCCGCGCCGGUUAGGCAGAGGUGGGUGGUGUGGAGGAGUAUCUGUCCGGCGCGGACCACAUACUCUGAUGAUCCUUCGGGAUCAUUCAUGGCUCC/GCGCCGGUUAGGCAGUGGUGGGUGGUGUGGAGGAGUAGCUGUCCGGCGC; assay: fluorescence emission spectrum; settings: 150 mM K+, 5 mM Mg2+; 20 mM MOPS-KOH pH 7
# [11] = test system: A16C + U38G (RNA, aptamer) GCGCCGGUUAGGCAGCGGUGGGUGGUGUGGAGGAGUAGCUGUCCGGCGC; assay: fluorescence activation; settings: 150 mM K+, 5 mM Mg2+; 20 mM MOPS-KOH pH 7.0; considerably less fluorescent than wild-type
Compound,binding [1],binding [2],Kd [3] [µM],binding [4],binding [5],Kd [6] [µM],Kd [7] [µM],binding [8],binding [9],binding [10],binding [11]
Cc1ccc2c(c1)sc(-c1ccc(N(C)C)cc1)[n+]2C,yes,,,,,,,,,,
COC(=O)/C=C/C1=NC(=C\c2cc(F)c(O)c(F)c2)/C(=O)N1C,,yes,1.55,yes,yes,0.47 ± 0.18,4.9 ± 1.2,yes,yes,yes,yes
CN1C(=O)/C(=C/c2cc(F)c(O)c(F)c2)N=C1/C=N/O,,,9.3 ± 1.5,,,,7.6 ± 0.8,,,yes,
